Counter-ions that a name gives are not always drawn. Like-named read-outs stand apart in the source and are kept apart here.

The subject of one assay is INS832/13 cells. Put plainly: Insulin secretion from INS832/13 cells, 2-h static incubations. The format is cell-based. Particulars: control 1.95. As to the method:
Materials. Cell culture supplies were from Corning (Corning, N.Y.) and Fisherbrand (Canada). VVWL70 was dissolved in dimethylsulfoxide (DMSO) before their use in insulin secretion experiments. Palmitate sodium salt was from Nu-Check Prep (Elysian, Minn.) and bicinchoninic acid protein assay kit from Pierce (Rockford, Ill.) was used. Stock unlabelled palm itate was prepared at 4 mM in 5% defatted BSA as described elsewhere (Roduit et al. Diabetes (2004) 53 pp 1007-1019,).
Cell culture. INS832/13 cells (Hohmeir et al. Diabetes (2000) 49 pp 424-430,) were cultured at 37° C. in a humidified atmosphere containing 5% CO2 in RPMI 1640 with sodium bicarbonate, supplemented with 10% (v/v) fetal calf serum (Wisent), 10 mM HEPES, pH 7.4, 2 mM L-glutamine, 1 mM sodium pyruvate and 50 μM β-mercaptoethanol (complete RPMI). Cells were grown to 80% confluence. Media were changed to RPMI 1640 containing 3 mM glucose supplemented as the complete RPMI 24 h prior to the experiments. Insulin secretion incubations were conducted in Krebs-Ringer bicarbonate buffer containing 10 mM HEPES, pH 7.4 (KRBH).
Insulin secretion measurement. INS832/13 cells were washed in KRBH containing 1 mM glucose and 0.5% defatted BSA (KRBH 1 G/0.5% BSA) and pre-incubated for 45 min in KRBH 1 G/0.5% BSA in presence of pharmacological agents (at indicated concentrations) or vehicle (DMSO). For examining the effect of VVWL70 (an inhibitor of ABHD6), other compounds identified in table 1, and/or orlistat (lipase inhibitor), the compounds were added first in pre-incubation media and then during incubation at 1 to 20 μM concentration (see Table-2) at 2 mM and 10 mM glucose. Insulin secretion from INS832/13 cells was measured from 2-h static incubations in KRBH containing various glucose concentrations, 0.5% defatted BSA and pharmacological agents or vehicle (DMSO), with or without 35 mM KCl or 0.3 mM palm itate, as specified (see Peyot et al., 2009—Adipose Triglyceride Lipase Is Implicated in Fuel- and Non-fuel-stimulated Insulin Secretion—J Biol Chem, 284: pp. 16848-16859). The experiments were done 3 times, with triplicates of each measurement.

For a further assay, the system named is DAGL. The assay is described as follows: Inhibition of DAGL in INS 832/13 β-cell extracts (1,2-dioleoylglycerol hydrolysis, HPLC). The format is biochemical. Particulars: compound at 10 μM; 60 min at 30° C.; 50 μM 1,2-dioleoylglycerol. As to the method:
(§1) Both ABHD6 and DAGL enzymes were assayed in a single incubation, with separate substrates. Cell extract, 10 μg was incubated in a final volume of 50 μl with 50 μM 1,2-dioleoylglycerol (substrate for DAGL) and 50 μM 1-palmitoylglycerol (substrate for ABHD6). […] Quantification of oleate and palm itate released gave the activities of DAGL and ABHD6, respectively. Incubations contained indicated compounds at 10 μM (or as shown) concentration. VVWL70 was used as a positive control for ABHD6 inhibition and orlistat (ORL) was used as a control for total lipase inhibition.

Another assay addresses T1, ABHD6 (Rattus norvegicus, UniProt Q5XI64).
T1 construct: INS 832/13 β-cell extracts (whole cell) were prepared by sonication; endogenous in cells; host or cells: INS 832/13 β-cells, whole-cell extract
T1 sequence (Q5XI64 1-337): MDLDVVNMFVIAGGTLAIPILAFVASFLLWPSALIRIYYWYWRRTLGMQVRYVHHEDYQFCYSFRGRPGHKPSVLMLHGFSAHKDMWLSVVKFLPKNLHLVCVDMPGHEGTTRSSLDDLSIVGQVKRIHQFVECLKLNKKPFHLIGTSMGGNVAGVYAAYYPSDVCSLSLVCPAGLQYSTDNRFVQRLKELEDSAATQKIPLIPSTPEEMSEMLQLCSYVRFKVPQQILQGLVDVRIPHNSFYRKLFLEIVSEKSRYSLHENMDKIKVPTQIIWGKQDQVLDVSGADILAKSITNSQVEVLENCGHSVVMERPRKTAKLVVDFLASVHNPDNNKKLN
Put plainly: biochemical. Conditions: read-out: ABHD6 Inhibition %. As to the method: as §1

In another assay the test system is CD1 strain mice. The assay is described as follows: Oral glucose tolerance test (OGTT) in streptozotocin-induced mildly diabetic mice. The format is in vivo. Particulars: 5 mg/kg intraperitoneally daily for three days prior to OGTT; glucose 2 g/kg by gavage; versus vehicle; FIGS. 1 and 2. As to the method:
In this experiment—CD1 strain mice were injected once with streptozotocin (100 mg/kg body wt) to induce mild diabetes. After 4 weeks, the mice were fasted overnight and oral glucose tolerance test (OGTT) was done. Half the animals (5) received ABHD6 inhibitor, VVWL70 for the three days prior to OGTT, daily, intraperitoneally (at 5 mg/kg body weight) and the other half received only vehicle. For OGTT, glucose was given by gavage (2 g/kg body wt), followed by blood collection at indicated time points (on the graph) for the analysis of blood glucose (by glucometer) and plasma insulin (by ELISA).

Setting [1] is: compound at 10 μM, 60 min at 30° C., 50 μM 1-palmitoylglycerol.

On to `CNC(=O)c1ccc(-c2ccc(OC(=O)N(C)Cc3cccc(-c4ccncc4)c3)cc2)cc1` [Compound 2, 4′-(Methylcarbamoyl)biphenyl-4-yl N-methyl-N-(3-(pyridin-4-yl)benzyl)carbamate], for which the “Insulin secretion (% content)” value is listed as 2.25 % content with INS832/13 cells (compound at 2 μM), 3.70 % content in the assay with INS832/13 cells (compound at 5 μM) and 6.08 % content with INS832/13 cells (compound at 10 μM). Moreover, in the assay with DAGL, the “DAGL Inhibition %” value is recorded as 0%. Besides, the inhibition (commonly how much of the control response was suppressed) at 10 µM at ABHD6 was found to be 98%.
`NC(=O)c1ccc(-c2ccc(OC(=O)N(Cc3cccc(-c4ccncc4)c3)c3ccccc3)cc2)cc1` [Compound 3, trifluoroacetate salt]: the “Insulin secretion (% content)” value in the assay on INS832/13 cells (compound at 2 μM) came to 2.00 % content; in the assay with INS832/13 cells (compound at 5 μM), 2.10 % content; in the assay with INS832/13 cells (compound at 10 μM), 3.05 % content. Moreover, the “DAGL Inhibition %” value with DAGL is on record as 0%. For the same compound, on ABHD6 (setting [1]), the inhibition at 10 µM worked out at 90%.
Regarding `CNC(=O)c1ccc(-c2ccc(OC(=O)N(Cc3cccc(-c4ccncc4)c3)C(C)C)cc2)cc1` [Compound 6, 4′-(Methylcarbamoyl)biphenyl-4-yl N-i-propyl-N-(3-(pyridin-4-yl)benzyl)carbamate], the “Insulin secretion (% content)” value is given as 3.10 % content with INS832/13 cells (compound at 2 μM), 3.98 % content in the assay with INS832/13 cells (compound at 5 μM) and 5.88 % content with INS832/13 cells (compound at 10 μM). Further, the “DAGL Inhibition %” value with DAGL is listed as 0%. Besides, the inhibition at 10 µM at ABHD6 (setting [1]) came to 95%.
For `CN(Cc1cccc(-c2ccncc2)c1)C(=O)Oc1ccc(-c2ccc(C(N)=O)cc2)cc1` [Compound 1, reference compound], the figures for the “Insulin secretion (% content)” value with INS832/13 cells (compound at 2 μM), in the assay with INS832/13 cells (compound at 5 μM) and with INS832/13 cells (compound at 10 μM) were 3.22 % content, 3.97 % content and 6.03 % content, respectively. Besides, the “blood glucose control in OGTT” value with CD1 strain mice was “able to control their blood glucose levels better than the mice which were given vehicle”. Moreover, in the assay with CD1 strain mice, the “plasma insulin levels in OGTT” value is recorded as “increase in plasma insulin levels”.
Regarding `CNC(=O)c1ccc(-c2ccc(OC(=O)N(C)Cc3cccc(-c4ccccc4)c3)cc2)cc1` [Compound 4, 4′-(Methylcarbamoyl)biphenyl-4-yl N-methyl-N-(3-phenylbenzyl)carbamate], the “Insulin secretion (% content)” value turned out to be 3.05 % content with INS832/13 cells (compound at 2 μM), 3.65 % content in the assay with INS832/13 cells (compound at 5 μM) and 3.82 % content with INS832/13 cells (compound at 10 μM). In the assay on DAGL, the “DAGL Inhibition %” value is 0%. Moreover, the inhibition at 10 µM at ABHD6 is 70%.
As for `CN(Cc1cccc(-c2ccncc2)c1)C(=O)Oc1ccc(-c2ccc(C(=O)NC3CC3)cc2)cc1` [Compound 5, 4′-(Cyclopropylcarbamoyl)biphenyl-4-yl N-methyl-N-(3-(pyridin-4-yl)benzyl)carbamate], the “Insulin secretion (% content)” value with INS832/13 cells (compound at 2 μM) is listed as 2.01 % content; in the assay on INS832/13 cells (compound at 5 μM) it was 2.05 % content; in the assay with INS832/13 cells (compound at 10 μM) it was 3.56 % content. Further, the “DAGL Inhibition %” value in the assay with DAGL came out at 10%. Besides, the inhibition at 10 µM on ABHD6 is 60%.

The values are drawn from patent US20160264527A1 (priority 2011, published 2016).
